ChEMBL document CHEMBL1141120, “Structure-based design and discovery of protein tyrosine phosphatase inhibitors incorporating novel isothiazolidinone heterocyclic phosphotyrosine mimetics” (J Med Chem, 2005)

Tests used:
[1] = molecular target: T1, Tyrosine-protein phosphatase non-receptor type 1 (Homo sapiens, UniProt P18031); test: Inhibition constant against protein-tyrosine phosphatase 1B by PNPP enzyme assay
T1 sequence (P18031 whole entry): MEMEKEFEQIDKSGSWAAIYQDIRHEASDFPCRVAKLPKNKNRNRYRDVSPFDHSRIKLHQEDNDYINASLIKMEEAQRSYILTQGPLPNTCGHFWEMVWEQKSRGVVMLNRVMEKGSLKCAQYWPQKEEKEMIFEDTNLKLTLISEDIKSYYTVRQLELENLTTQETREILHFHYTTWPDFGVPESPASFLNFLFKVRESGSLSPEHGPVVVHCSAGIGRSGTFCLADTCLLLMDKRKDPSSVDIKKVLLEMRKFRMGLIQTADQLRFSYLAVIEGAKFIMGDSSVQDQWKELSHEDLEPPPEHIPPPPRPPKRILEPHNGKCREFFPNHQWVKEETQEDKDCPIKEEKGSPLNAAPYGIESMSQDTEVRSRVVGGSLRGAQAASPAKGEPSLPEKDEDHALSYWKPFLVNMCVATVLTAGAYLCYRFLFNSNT

[2] = molecular target: T1, Tyrosine-protein phosphatase non-receptor type 1; test: Inhibitory concentration against protein-tyrosine phosphatase
[3] = molecular target: T2, Tyrosine-protein phosphatase non-receptor type 2 (Homo sapiens, UniProt P17706); test: Inhibitory concentration against T cell protein tyrosine phosphatase
T2 sequence (P17706 whole entry): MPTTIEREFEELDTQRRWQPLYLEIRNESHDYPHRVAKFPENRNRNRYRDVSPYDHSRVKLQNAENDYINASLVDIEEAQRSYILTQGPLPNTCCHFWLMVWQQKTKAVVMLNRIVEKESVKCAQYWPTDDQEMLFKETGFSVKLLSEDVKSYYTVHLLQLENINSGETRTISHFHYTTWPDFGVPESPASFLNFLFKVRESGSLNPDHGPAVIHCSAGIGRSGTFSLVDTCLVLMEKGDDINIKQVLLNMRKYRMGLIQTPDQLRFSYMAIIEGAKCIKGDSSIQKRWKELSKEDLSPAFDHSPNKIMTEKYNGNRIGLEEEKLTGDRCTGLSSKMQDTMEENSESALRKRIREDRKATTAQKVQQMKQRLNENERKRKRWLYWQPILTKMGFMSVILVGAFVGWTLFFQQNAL

Ki [1]: 180 nM
IC50 [2]: > 100000 nM
IC50 [3]: 135 nM
SMILES: CC(=O)N[C@@H](Cc1ccccc1)C(=O)N[C@@H](Cc1ccc([C@@H]2CC(=O)NS2(=O)=O)cc1)C(N)=O
